Measurements reported in patent publication US5306721A (priority 1990, dated 1994).
Where a name gives a salt, the structure may show the parent alone. Read-outs that look alike come from different tables or passages of the source.

How the values were obtained:
Herpes simplex type 1 = test: Grading replication test on RH cell line, herpes simplex type 1; format: cell-based, herpes simplex virus; conditions: Human alphaherpesvirus 1, RH cells
Vaccinia Lister [1] = test: microbe, parasite or virus in culture; format: cell-based; conditions: Orthopoxvirus vaccinia
Influenza A/WSN [2] = test: Grading replication test on RH cell line, influenza; format: cell-based, influenza virus; conditions: RH cells
Vaccinia Lister [3] = test: microbe, parasite or virus in culture; format: cell-based; conditions: Orthopoxvirus vaccinia, Fibroblast, in Gallus gallus
[4] = tested on: effector T lymphocyte activity (contact hypersensitivity); test: Percutaneous test for detecting delayed contact hypersensitivity (contact dermatitis) after DNFB immunization; format: in vivo, guinea pig; conditions: Cavia porcellus, Control: 100, oral 2 mg/kg daily
Description: 1.1 Percutaneous test for detecting contact hypersensitivity
The epicutaneous application of dinitrofluorobenzene (DNFB) led to the development of a delayed hypersensitivity in guinea pigs and mice, an immune status, which is linked to the clonal reproduction of antitrinitrophenyl (TNP)-specific T lymphocytes (TDTH -ly). If, after a latency period of at least 5 days, there is a renewed application of DNFB, lymphokines are released through the reaction with the TDTH -ly of this region of the skin and thus lead to a locally limited inflammatory reaction.
Seven days after the immunization with 1% DNFB, the sides of the experimental animals were depilated and tested by the application of one drop each of the 0.5%, 0.1%, 0.05, 0.025% and 0.01% DNFB solution. […] The test results are obtained from the severity and number of the positive skin reactions, and the stimulation index (SI) is obtained from the comparison of test animals and control animals.
The test substance is orally administered. A daily dose of 2 mg/kg of body weight, as an aqueous suspension, was administered daily by a stomach tube. Duration of treatment: 1 day+1 (one day after the immunization), up to +6. The control animals received only the lactose content of the composition.
(§1) The degree of sensitization in percent and the concentration of serum antibodies expressed as antibody titer difference is compared below to the respective control group (screening values).
(§2) A contact dermatitis value of 120 or more, i.e. corresponding to an at least 20% increase compared to the control, or of less than 80 are taken as proof of a stimulatory or suppressor effect, respectively. Antibody values of >+1 or <-1 illustrate the stimulatory or suppressor effect, respectively, of the substances on the humoral response.

[5] = tested on: SE-specific rosette-forming cells (RFC); test: Rosette test (SE-specific rosettes); format: in vivo, mouse (inbred CBA strain); conditions: oral administration
Experimental: The testing of immunostimulatory effects was also conducted on the mouse (inbred CBA strain) by detection through the plaque test for detecting SE (sheep erythrocyte) -specific immunoglobulin M (IgM) and immunoglobulin G (IgG) PFC (plaque forming cells), and by the rosette test.
2.2 Rosette Test (SE-specific rosettes)
According to Burnet's Theory, lymphocytes carry immunoglobulin receptors on their surface. These receptors are directed against a particular antigen and are detectable by a reaction with the specific antigen. The determination of the number of rosette-forming cells (RFC) can serve as a measure of the strength of an incipient immune reaction and consequently also reproduce the effects of a suppression or stimulation of cell-proliferative processes.
Three days after the intravenous immunization with 2×10^5 SE in 0.2 ml physiological salt solution, the experimental animals were killed by hyperdistention, the spleen was removed and, after addition of Parker medium at pH 7.4, rubbed through Muller gauze. The work to recover the cell suspension was carried out in an ice-cooled water bath from about 0° C. to about 4° C. The determination of the cell density was carried out in a Neubauer counting chamber. Next, the cell count was adjusted to 1×10^7 nuclei-containing cell (NCC) per ml of medium, a count that was kept constant for all experimental formulations. Of this spleen cell suspension (1×10^7 NCC/ml), 0.9 ml were then mixed with 0.1 ml of a 5% washed SE suspension and incubated for 24 hours at 4° C. An NCC, which was surrounded by at least 4 erythrocytes and was identifiable, was rated as a rosette.

Influenza A/WSN [6] = test: Grading replication test on chicken embryo fibroblasts, influenza; format: cell-based; conditions: Influenza A virus, Fibroblast
[7] = tested on: DNP-specific serum antibodies; test: Takatsy test for DNP-specific serum antibodies (humoral immune response); format: in vivo, guinea pig; conditions: difference to control group; blood taken 14 days after DNFB
Experimental: After immunization with DNFB, dinitrophenyl (DNP)-specific humoral antibodies, which preferentially belong to the IgG1 substance class, are developed in guinea pigs. Blood was taken from the experimental animals by puncture of the heart fourteen days after the primary epicutaneous application of DNFB. The antibody (AB) concentration was determined according to the method described by G. Takatsy: A New Method for the Preparation of Serial Dilutions in a Quick and Accurate Way, (Kiserletes Orvostudomany, Hungary, Vol. 2, 1950, pp. 263-396). TNP-laden sheep erythrocytes were used as indicator cells coupled according to Rittenberg and Pratt (M. B. Rittenberg, and K. L. Pratt, Antitrinitrophenyl Plaque Assay. Primary Response of BALB/c Mice to Soluble and Particulate Immunogen, Proc. Soc. Exp. Biol. Med., Vol. 132, 1969, pp. 575-579).
as §1, §2

[8] = levamisole after oral administration to man; inosine benzoate about 50 mg/kg/day; cited from earlier work
immune system = conditions: cited from earlier work
[9] = 62.5 μmoles/l, read-out: Inhibition of virus yield
[10] = 62.5 μmoles/l, read-out: Lowering the virus yield
[11] = 125 μmoles/l, read-out: Inhibition of virus yield
[12] = 125 μmoles/l, read-out: Lowering the virus yield
[13] = 250 μmoles/l, read-out: Inhibition of virus yield
[14] = 250 μmoles/l, read-out: Lowering the virus yield
[15] = read-out: Inhibition of virus yield
[16] = read-out: Lowering the virus yield
[17] = 24 h, day +1 to +6, read-out: Contact dermatitis, 24-hour reaction
[18] = 48 h, day +1 to +6, read-out: Contact dermatitis, 48-hour reaction

COc1cc2[nH]c(=O)n(CCCS)c(=O)c2cc1OC [Example 2, 3-(3-mercapto-prop-1-yl)-6,7-dimethoxy-quinazoline-2,4(1H,3H)-dione]
inhibition at 31.25 µM (Herpes simplex type 1; 31.25 μmoles/l, read-out: Inhibition of virus yield): 100% | log reduction at 31.25 µM (Herpes simplex type 1; 31.25 μmoles/l, read-out: Lowering the virus yield): 3.67 | inhibition at 62.5 µM (Herpes simplex type 1; [9]): > 100% | log reduction at 62.5 µM (Herpes simplex type 1; [10]): 5 | inhibition at 125 µM (Herpes simplex type 1; [11]): > 100% | log reduction at 125 µM (Herpes simplex type 1; [12]): 6.5 | inhibition at 250 µM (Herpes simplex type 1; [13]): > 100% | log reduction at 250 µM (Herpes simplex type 1; [14]): 6.5 | inhibition at 31.25 µM (Vaccinia Lister [1]; [15]): 99.8% | inhibition at 62.5 µM (Vaccinia Lister [1]; [15]): > 100% | inhibition at 125 µM (Vaccinia Lister [1]; [15]): > 100% | inhibition at 250 µM (Vaccinia Lister [1]; [15]): > 100% | log reduction at 31.25 µM (Vaccinia Lister [1]; [16]): 2.84 | log reduction at 62.5 µM (Vaccinia Lister [1]; [16]): 5 | log reduction at 125 µM (Vaccinia Lister [1]; [16]): 5 | log reduction at 250 µM (Vaccinia Lister [1]; [16]): 5 | Inhibition of virus yield (Influenza A/WSN [2]; 62.5 μmoles/l, n.s. = not significant): n.s. | log reduction at 31.25 µM (Influenza A/WSN [2]; Influenza A virus, WSN, 31.25 μmoles/l, read-out: Lowering the virus yield): 0 | log reduction at 62.5 µM (Influenza A/WSN [2]; Influenza A virus, WSN, 62.5 μmoles/l, read-out: Lowering the virus yield): 0.5 | inhibition at 125 µM (Influenza A/WSN [2]; Influenza A virus, WSN, 125 μmoles/l, read-out: Inhibition of virus yield): 99% | log reduction at 125 µM (Influenza A/WSN [2]; Influenza A virus, WSN, 125 μmoles/l, read-out: Lowering the virus yield): 2 | inhibition at 250 µM (Influenza A/WSN [2]; Influenza A virus, WSN, 250 μmoles/l, read-out: Inhibition of virus yield): 100% | log reduction at 250 µM (Influenza A/WSN [2]; Influenza A virus, WSN, 250 μmoles/l, read-out: Lowering the virus yield): 6.17 | inhibition at 31.25 µM (Vaccinia Lister [3]; [15]): 99.9% | inhibition at 62.5 µM (Vaccinia Lister [3]; [15]): 99.9% | inhibition at 125 µM (Vaccinia Lister [3]; [15]): > 100% | inhibition at 250 µM (Vaccinia Lister [3]; [15]): > 100% | log reduction at 31.25 µM (Vaccinia Lister [3]; [16]): 3 | log reduction at 62.5 µM (Vaccinia Lister [3]; [16]): 3.5 | log reduction at 125 µM (Vaccinia Lister [3]; [16]): 5 | log reduction at 250 µM (Vaccinia Lister [3]; [16]): 5 | response vs control in vivo at 2 mg/kg [4, 17]: 180% | production of SE-specific rosette-forming cells [5]: significant production of SE-specific rosette-forming cells | inhibition at 62.5 µM (Influenza A/WSN [6]; [9]): 99% | log reduction at 62.5 µM (Influenza A/WSN [6]; [10]): 2 | inhibition at 125 µM (Influenza A/WSN [6]; [11]): > 100% | log reduction at 125 µM (Influenza A/WSN [6]; [12]): 5 | inhibition at 250 µM (Influenza A/WSN [6]; [13]): > 100% | log reduction at 250 µM (Influenza A/WSN [6]; [14]): 5

COc1cc2[nH]c(=O)n(CCS)c(=O)c2cc1OC [Example 3, 3-(2-mercapto-ethyl)-6,7-dimethoxy-quinazoline-2,4(1H,3H)-dione]
DNP-specific antibodies (antibody titer difference) [7]: +1.0 | response vs control in vivo at 2 mg/kg [4, 17]: 100%

O=c1[nH]c2ccc(Br)cc2c(=O)n1CCS [Example 5, 6-bromo-3-(2-mercaptoethyl)-quinazoline-2,4(1H,3H)-dione]
DNP-specific antibodies (antibody titer difference) [7]: -0.6 | response vs control in vivo at 2 mg/kg [4, 17]: 150% | response vs control in vivo at 2 mg/kg [4, 18]: 120%

O=c1[nH]c2ccccc2c(=O)n1CCCS [Example 6, 3-(3-Mercapto-propyl)-quinazoline-2,4(1H,3H)-dione]
DNP-specific antibodies (antibody titer difference) [7]: -1.5 | response vs control in vivo at 2 mg/kg [4, 17]: 70% | response vs control in vivo at 2 mg/kg [4, 18]: 40% | production of SE-specific rosette-forming cells [5]: significant production of SE-specific rosette-forming cells

CC(S)Cn1c(=O)[nH]c2ccccc2c1=O (centres unmarked) [Example 7, 3-(2-mercapto-propyl)-quinazoline-2,4(1H,3H)-dione]
DNP-specific antibodies (antibody titer difference) [7]: +1.8 | response vs control in vivo at 2 mg/kg [4, 17]: 230%

O=c1[nH]c2ccc(Cl)cc2c(=O)n1CCCS [Example 8, 6-chloro-3-(3-mercapto-propyl)-quinazoline-2,4(1H,3H)-dione]
response vs control in vivo at 2 mg/kg [4, 17]: 100% | response vs control in vivo at 2 mg/kg [4, 18]: 115%

Cc1ccc2[nH]c(=O)n(CCCS)c(=O)c2c1 [Example 12, 6-methyl-3-(3-mercapto-propyl)-quinazoline-2,4(1H,3H)-dione]
DNP-specific antibodies (antibody titer difference) [7]: +0.3 | response vs control in vivo at 2 mg/kg [4, 17]: 120% | response vs control in vivo at 2 mg/kg [4, 18]: 130%

O=c1[nH]c2ccc(Cl)cc2c(=O)n1CCS [Example 13, 6-chloro-3-(2-mercapto-ethyl)-quinazoline-2,4(1H,3H)-dione]
response vs control in vivo at 2 mg/kg [4, 17]: 120% | response vs control in vivo at 2 mg/kg [4, 18]: 130%

Cc1ccc2[nH]c(=O)n(CCS)c(=O)c2c1 [Example 14a, 6-Methyl-3-(2-mercapto-ethyl)-quinazoline-2,4(1H,3H)-dione]
DNP-specific antibodies (antibody titer difference) [7]: -1.9 | response vs control in vivo at 2 mg/kg [4, 17]: 60% | response vs control in vivo at 2 mg/kg [4, 18]: 60%

O=c1[nH]c2ccc(Br)cc2c(=O)n1CCCS [Example 14b, 6-Bromo-3-(3-mercapto-propyl)-quinazoline-2,4(1H,3H)-dione]
DNP-specific antibodies (antibody titer difference) [7]: +2.2 | response vs control in vivo at 2 mg/kg [4, 17]: 105% | response vs control in vivo at 2 mg/kg [4, 18]: 100%

O=c1[nH]c2ccc(F)cc2c(=O)n1CCS [Example 14c, 6-Fluoro-3-(2-mercapto-ethyl)-quinazoline-2,4(1H,3H)-dione]
response vs control in vivo at 2 mg/kg [4, 17]: 90% | response vs control in vivo at 2 mg/kg [4, 18]: 105%

CC(S)Cn1c(=O)[nH]c2ccc(F)cc2c1=O (centres unmarked) [Example 14d, 6-Fluoro-3-(2-mercapto-propyl)-quinazoline-2,4(1H,3H)-dione]
response vs control in vivo at 2 mg/kg [4, 17]: 100% | response vs control in vivo at 2 mg/kg [4, 18]: 150%

COc1cc2[nH]c(=O)n(CC(C)S)c(=O)c2cc1OC (centres unmarked) [Example 14e, 6,7-Dimethoxy-3-(2-mercapto-propyl)-quinazoline-2,4(1H,3H)-dione]
response vs control in vivo at 2 mg/kg [4, 17]: 100% | production of SE-specific rosette-forming cells [5]: significant production of SE-specific rosette-forming cells

CC(C)(N1CC1C#N)N1CC1C(N)=O (centres unmarked) [azimexone]
side effects [8]: headaches, vomiting and a decrease in haemoglobin (Hb) and erythrocytes

O=C(OC[C@H]1O[C@@H](n2cnc3c(O)ncnc32)[C@H](O)[C@@H]1O)c1ccccc1 [inosine benzoate]
immunological effect (immune system): primarily an immunostimulating effect | side effects [8]: vomiting, hyperuricemia and an increase in hematocrits

c1ccc([C@H]2CN3CCSC3=N2)cc1 [levamisole hydrochloride]
immunological effect (immune system): predominantly immunorestorative effect | side effects [8]: vomiting, nausea, leucopenia, and agranulocytosis
